Test results: ChEMBL document CHEMBL1131576, “7-Oxo-4,5,6,7-tetrahydro-1H-pyrazolo[3,4-c]pyridines as novel inhibitors of human eosinophil phosphodiesterase” (J Med Chem, 1998)

Tests used:
U-937 = assay: Arbitary maximal response for cAMP elevation from baseline level was evaluated in Human U-937 cells; format: functional, cell-based
Phosphodiesterase 4 = Phosphodiesterase 4 (Homo sapiens, UniProt P27815+Q08499+Q07343+Q08493); assay: Inhibitory activity on human eosinophil phosphodiesterase 4.; format: protein assay
Cavia porcellus = assay: Effect on Aerosolized Antigen Induced Airway Obstruction (AAIAO) in guinea pig after oral dose; format: functional
[1] = biological target: cGMP-specific 3',5'-cyclic phosphodiesterase (Homo sapiens) (UniProt O76074); assay: Inhibition of Phosphodiesterase 5 from human corpus cavernosum at 10 uM
[2] = biological target: cGMP-specific 3',5'-cyclic phosphodiesterase (Homo sapiens) (UniProt O76074); assay: Inhibition of Phosphodiesterase 5 from human corpus cavernosum at 1 uM
[3] = biological target: Phosphodiesterase 3 (Homo sapiens) (UniProt Q14432+Q13370); assay: Inhibition of PDE3 from human heart at 100 uM; format: protein assay
[4] = biological target: Phosphodiesterase 1 (Homo sapiens) (UniProt P54750+Q01064+Q14123); assay: Inhibition of Phosphodiesterase 1 from human cardiac ventricle at 10 uM; format: protein assay
[5] = Compound tested for plasma levels in monkeys dosed at 10 mg/kg, po; format: ADME, organism-based; parameters: dose 10 mg/kg, route oral; conditions: monkey, in vivo, read-out: Plasma level
Monkey [6] = assay: Percent Eosinophil inhibition in monkeys at 10 mg/kg oral dose; format: functional; conditions: Cercopithecidae, in Primates
Monkey [7] = assay: Percent cytokine inhibition in monkeys at 10 mg/kg oral dose; format: functional; conditions: Cercopithecidae, in Primates
Monkey [8] = assay: Percent cytokine IL-8 inhibition in monkeys at 10 mg/kg oral dose; format: functional; conditions: Cercopithecidae, in Primates
Monkey [9] = assay: Percent cytokine TNF inhibition in monkeys at 10 mg/kg oral dose; format: functional; conditions: Cercopithecidae, in Primates

SMILES | EC50 (U-937) [nM] | IC50 (Phosphodiesterase 4) [nM] | other results
CCc1nn(C2CCCCC2)c2c1CCN(c1cccc(OC)c1)C2=O | 980 | 48 | 
CCc1nn(C2CCCC2)c2c1CCN(c1cccc(Cl)c1)C2=O | 41 | 39 | 
CCc1nn(C2CCCC2)c2c1CCN(c1ccccn1)C2=O |  | 1640 | 
CCc1nn(-c2ccc(F)cc2)c2c1CCN(c1ccccc1)C2=O | 880 | 1640 | ED50 (Cavia porcellus): 4.3 mg/kg; inhibition [1]: 50%; inhibition [2]: 1%; inhibition [3]: 33%; inhibition [4]: 2%
CCc1nn(-c2ccc(F)cc2)c2c1CCN(c1ccccc1OC)C2=O | 3210 | 1080 | 
CCc1nn(-c2ccc(F)cc2)c2c1CCN(c1ccc(OC)cc1)C2=O | 6250 | 6040 | 
CCc1nn(-c2ccc(F)cc2)c2c1CCN(c1cccc(OC)c1)C2=O |  | 490 | 
COc1ccc(N2CCc3c(C)nn(-c4ccc(F)cc4)c3C2=O)cc1 |  | 15700 | 
CCc1nn(-c2ccc(F)cc2)c2c1CCN(c1ccc(C)cc1)C2=O | 500 | 2240 | 
CCc1nn(C2CCCC2)c2c1CCN(c1cccnc1)C2=O | 17 | 160 | 
CCc1nn(C2CCC2)c2c1CCN(c1cccc(OC)c1)C2=O | 520 | 150 | 
CCc1nn(C2CCCC2)c2c1CCN(c1ccccc1)C2=O | 70 | 160 | 
CCc1nn(-c2ccc(F)cc2)c2c1CCN(c1ccccc1C)C2=O |  | 890 | 
COc1ccc([C@H](Cc2ccncc2)c2ccccc2)cc1OC1CCCC1 [CDP840] | 290 | 670 | 
CCc1nn(C2CCCC2)c2c1CCN(Cc1ccccc1)C2=O | 36 | 420 | 
CCc1nn(C2CCCC2)c2c1CCN(c1ccccc1C)C2=O | 330 | 440 | ED50 (Cavia porcellus): 2 mg/kg; inhibition [1]: 21%; inhibition [2]: 7%; concentration [5]: 280 nM; inhibition in vivo at 10 mg/kg (Monkey [6]): 55.2%; inhibition [3]: 9%; inhibition [4]: 8%; inhibition in vivo at 10 mg/kg (Monkey [7]): 82.1%
COc1ccc(C2CNC(=O)C2)cc1OC1CCCC1 (stereo not drawn) [ROLIPRAM] | 1230 |  | ED50 (Cavia porcellus): 0.6 mg/kg; inhibition in vivo at 10 mg/kg (Monkey [8]): 84%; inhibition in vivo at 10 mg/kg (Monkey [9]): 33.4%; concentration [5]: 910 nM; inhibition in vivo at 10 mg/kg (Monkey [6]): 49.4%
CCCCc1nn(-c2ccc(F)cc2)c2c1CCN(c1ccccc1)C2=O | 13000 | 84700 | 
COc1ccc(C(=O)Nc2c(Cl)cncc2Cl)cc1OC1CCCC1 | 40 |  | 
CCc1nn(C2CCS(=O)(=O)C2)c2c1CCN(c1cccc(OC)c1)C2=O (stereo not drawn) | 5270 | 460 | 
CCc1nn(C2CCCC2)c2c1CCN(c1cccs1)C2=O | 1 | 63 | 
CCc1nn(C2CCCC2)c2c1CCN(c1ccsc1)C2=O | 36 | 660 | 
CCc1nn(C2CCCC2)c2c1CCN(c1cccc(OC)c1)C2=O | 330 | 34 | 
CCCc1nn(-c2ccc(F)cc2)c2c1CCN(c1ccc(OC)cc1)C2=O | 11000 | 84900 | 
CCc1nn(-c2ccc(F)cc2)c2c1CCN(c1cccc(C)c1)C2=O | 780 | 270 | 
COc1ccc([C@]2(C#N)CC[C@@H](C(=O)O)CC2)cc1OC1CCCC1 [CILOMILAST] | 3630 |  | 
